In paper PMC8619024, “COX Inhibitory and Cytotoxic Naphthoketal-Bearing Polyketides from Sparticola junci” (International Journal of Molecular Sciences, 2021):

Target: T1, COX-2
T1 construct: gene PTGS2; COX Activity Assay Kit (Cayman); species inferred from usual Cayman COX-2 (human recombinant; ovine possible); docking used PDB 3LN1
Assay: COX peroxidase activity kit, TMPD oxidation at […] nm
Assay type: biochemical
Settings: DMSO; triplicate

IC50: 300 nM
SMILES: O=C(C[C@H](O)C1(c2cccc(O)c2O)Oc2cccc3cccc(c23)O1)OC[C@H](O)CO [compound 1, (8S)-(22R)-2,3-dihydroxypropyl-3-(2-(2,3-dihydroxyphenyl)naphtho[1,8-de][1,3]dioxin-2-yl)-3-hydroxypropanoate]
